Legend:
Details in all cases: 25 µM pACP, 24 h, maintenance medium 1% FBS, ratio of viability to vehicle (PBS), at least three technical repetitions
HT29 = test: MTT primary screening of anticancer activity, HT29; type: cell-based, Human
Outline: (§1)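 Primary screen at one c[…]ntration, 25 µM final. Treatment lasted 24 h in medium with 1% FBS, starting at 60% confluence, followed by MTT viability measurement.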

Caco2 = test: MTT primary screening of anticancer activity, Caco2; type: cell-based, Human
Outline: as §1

HCT116 = test: MTT primary screening of anticancer activity, HCT116; type: cell-based, Human
Outline: as §1

CT26 = test: MTT primary screening of anticancer activity, CT26; type: cell-based, Murine
Outline: as §1

MDA-MB-231 = test: MTT primary screening of anticancer activity, MDA-MB-231; type: cell-based
Outline: as §1

MDA-MB-436 = test: MTT primary screening of anticancer activity, MDA-MB-436; type: cell-based
Outline: as §1

MDA-MB-453 = test: MTT primary screening of anticancer activity, MDA-MB-453; type: cell-based
Outline: as §1

MDA-MB-468 = test: MTT primary screening of anticancer activity, MDA-MB-468; type: cell-based
Outline: as §1

SK-BR-3 = test: MTT primary screening of anticancer activity, SK-BR-3; type: cell-based
Outline: as §1

BT474 = test: MTT primary screening of anticancer activity, BT474; type: cell-based
Outline: as §1

T47D = test: MTT primary screening of anticancer activity, T47D; type: cell-based
Outline: as §1

EFM192A = test: MTT primary screening of anticancer activity, EFM192A; type: cell-based
Outline: as §1

B16 = test: MTT primary screening of anticancer activity, B16; type: cell-based, Mouse
Outline: as §1

MCF7 = test: MTT primary screening of anticancer activity, MCF7; type: cell-based
Outline: as §1

Hela = test: MTT primary screening of anticancer activity, Hela; type: cell-based, Human
Outline: as §1

LCC = test: MTT primary screening of anticancer activity, LCC; type: cell-based
Outline: as §1

Sequence	Survival rate of cancer cells in primary screening (HT29)	Survival rate of cancer cells in primary screening (Caco2)	Survival rate of cancer cells in primary screening (HCT116)	Survival rate of cancer cells in primary screening (CT26)	Survival rate of cancer cells in primary screening (MDA-MB-231)	Survival rate of cancer cells in primary screening (MDA-MB-436)	Survival rate of cancer cells in primary screening (MDA-MB-453)	Survival rate of cancer cells in primary screening (MDA-MB-468)	Survival rate of cancer cells in primary screening (SK-BR-3)	Survival rate of cancer cells in primary screening (BT474)	Survival rate of cancer cells in primary screening (T47D)	Survival rate of cancer cells in primary screening (EFM192A)	Survival rate of cancer cells in primary screening (B16)	Survival rate of cancer cells in primary screening (MCF7)	Survival rate of cancer cells in primary screening (Hela)	Survival rate of cancer cells in primary screening (LCC)
PPSTRIISKVYPFKKHARGGWAIPGMMCSQMVER [pACP1472]	1.00	1.00	1.00	1.00	1.00	1.00	1.00	0.76	1.00	1.00	1.00	1.00	1.00	1.00	1.00	1.00
PVCRKEKKDGKRCVARYVEHFAGKDRRMQA [pACP1505]	1.00	1.00	1.00	1.00	1.00	1.00	1.00	1.00	1.00	1.00	0.76	1.00	0.78	1.00	1.00	1.00
QESDAKKYGVGGYFQGLLSQ [pACP1529]	1.00	1.00	1.00	1.00	1.00	1.00	1.00	1.00	1.00	1.00	0.75	1.00	1.00	1.00	1.00	1.00
RCPCKGNTHRRYSIMFCNFDCASLLKLLCGFFGKC [pACP1621]	1.00	1.00	1.00	1.00	1.00	1.00	1.00	1.00	1.00	1.00	0.72	0.79	0.79	1.00	1.00	1.00
RLIVRMKTLYEKAAQMEIKIVENRFTRHEKKNKINRIKRKREK [pACP1722]	0.63	0.70	1.00	0.35	1.00	0.27	0.11	1.00	0.63	0.14	0.29	1.00	0.56	0.31	0.13	1.00
RLRPVILCKKRRLAAGRKKVGRQKKRKASAEGKEGRSPKKKKDGCW [pACP1739]	1.00	1.00	1.00	1.00	1.00	0.51	0.18	0.39	0.53	0.21	0.40	1.00	1.00	0.28	0.16	1.00
RPITNVGGFLEVNGKGVKPLHGNKFKCTVSGSFLASGWFTLELERVL [pACP1757]	1.00	1.00	1.00	1.00	1.00	1.00	1.00	1.00	1.00	1.00	0.76	1.00	0.79	1.00	1.00	1.00
RVYKFVDMIGEIGHGRENHIGSGFDERLCRNGACVDCYGKYLCCRTGDYP [pACP1836]	0.77	1.00	0.79	1.00	1.00	1.00	1.00	0.70	1.00	1.00	1.00	1.00	1.00	1.00	1.00	1.00
SCRNGKGISSGDRPGKAKTGISLEIGKCSYRNKGKSAENSSVAVV [pACP1869]	1.00	1.00	1.00	1.00	1.00	1.00	1.00	1.00	1.00	1.00	0.68	1.00	0.79	1.00	1.00	1.00
SPLKGGGLLPPAGFCPRRVLCRLPTGWKKGKPSGQMPLFRIWRKVMVMK [pACP1985]	1.00	1.00	1.00	0.77	0.10	0.0378	0.08	0.31	0.24	0.05	0.15	0.07	0.79	0.19	0.0132	1.00
SVGKRCKMGKNYKTVPALKGIPLAGGTYNTRNRSGSG [pACP2037]	1.00	1.00	1.00	1.00	1.00	1.00	1.00	1.00	1.00	1.00	0.74	1.00	0.78	1.00	1.00	1.00
